Assay results: patent US20090209494A1, “21-DEOXYMACBECIN ANALOGUES USEFUL AS ANTITUMOR AGENTS” (priority 2005, published 2009)
≈ marks a conversion by molar mass, not a printed value. Read-outs that look alike come from different tables or passages of the source.

Columns and labels:
DU145 [1] = test: in vitro anticancer activity in combination with compound 14, modified propidium iodide assay; type: cell-based, human
Experimental: Standard agents were applied at 10 concentrations in sextuplicates in half-log increments. […] Growth inhibition is expressed as treated/control×100 (% T/C), and IC70 values for each combination were determined by plotting compound concentration versus cell viability.
In vitro evaluation of 14 for anticancer activity when combined with standard cytotoxic agents against the tumour cell line DU145 in a monolayer proliferation assay was carried out as described in the general methods using a modified propidium iodide assay.

Reverse transcriptase = details: Ono et al., 1982; cited from earlier work
SF268 = test: monolayer proliferation assay (modified propidium iodide assay), SF268; type: cell-based, human; details: 4 days exposure, median of duplicate experiments
Experimental: (§1) In vitro evaluation of compounds for anticancer activity in a panel of 38 human tumour cell lines in a monolayer proliferation assay was carried out at the Oncotest Testing Facility, Institute for Experimental Oncology, Oncotest GmbH, Freiburg.
(§2) The Oncotest cell lines are established from human tumor xenografts as described by Roth et al., (1999). The origin of the donor xenografts was described by Fiebig et al., (1999). Other cell lines are either obtained from the NCl (H460, SF-268, OVCAR-3, DU145, MDA-MB-231, MDA-MB-468) or purchased from DSMZ, Braunschweig, Germany (LNCAP).
(§3) All cell lines, unless otherwise specified, were grown at 37° C. in a humidified atmosphere (95% air, 5% CO2) in a ‘ready-mix’ medium containing RPMI 1640 medium, 10% fetal calf serum, and 0.1 mg/mL gentamicin (PAA, Cölbe, Germany).
(§4) A modified propidium iodide assay was used to assess the effects of the test compound(s) on the growth of human tumour cell lines (Dengler et al., (1995)).
(§5) Briefly, cells were harvested from exponential phase cultures by trypsinization, counted and plated in 96 well flat-bottomed microtitre plates at a cell density dependent on the cell line (5-10.000 viable cells/well). After 24 h recovery to allow the cells to resume exponential growth, 0.010 mL of culture medium (6 control wells per plate) or culture medium containing a 21-deoxymacbecin analogue was added to the wells. Each concentration was plated in triplicate. […] Following 4 days of continuous exposure, cell culture medium with or without test compound was replaced by 0.2 mL of an aqueous propidium iodide (PI) solution (7 mg/L). To measure the proportion of living cells, cells were permeabilized by freezing the plates. After thawing the plates, fluorescence was measured using the Cytofluor 4000 microplate reader (excitation 530 nm, emission 620 nm), giving a direct relationship to the total number of viable cells.
(§6) Growth inhibition was expressed as treated/control×100 (% T/C). For active compounds, IC70 values were estimated by plotting compound concentration versus cell viability.
(§7) In vitro evaluation of the test compounds for anticancer activity in a panel of human tumour cell lines in a monolayer proliferation assay was carried out as described in the general methods using a modified propidium iodide assay.

[2] = biological target: terminal deoxynucleotidyl transferase (Homo sapiens, UniProt P04053); details: Ono et al., 1982; cited from earlier work
H460 = test: monolayer proliferation assay (modified propidium iodide assay), H460; type: cell-based, human; details: 4 days exposure, median of duplicate experiments
Experimental: as §1, §2, §3, §4, §5, §6, §7

OVCAR3 = test: monolayer proliferation assay (modified propidium iodide assay), OVCAR3; type: cell-based, human; details: 4 days exposure, median of duplicate experiments
Experimental: as §1, §2, §3, §4, §5, §6, §7

394NL = test: monolayer proliferation assay (modified propidium iodide assay), 394NL; type: cell-based, human; details: 4 days exposure, median of duplicate experiments
Experimental: as §1, §2, §3, §4, §5, §6, §7

1138L = test: monolayer proliferation assay (modified propidium iodide assay), 1138L; type: cell-based, human; details: 4 days exposure, median of duplicate experiments
Experimental: as §1, §2, §3, §4, §5, §6, §7

DU145 [3] = test: monolayer proliferation assay (modified propidium iodide assay), DU145; type: cell-based, human; details: 4 days exposure, median of duplicate experiments
Experimental: as §1, §2, §3, §4, §5, §6, §7

MCF7 = test: monolayer proliferation assay (modified propidium iodide assay), MCF7; type: cell-based, human; details: 4 days exposure, median of duplicate experiments
Experimental: as §1, §2, §3, §4, §5, §6, §7

251L = test: monolayer proliferation assay (modified propidium iodide assay), 251L; type: cell-based, human; details: 4 days exposure, median of duplicate experiments
Experimental: as §1, §2, §3, §4, §5, §6, §7

Solubility assay = type: physicochemical; details: aqueous buffer, kinetic from dmso stock; 2% DMSO in PBS pH 7.3; shaken up to six hours; maximum measurable 0.5 mM
Experimental: Solutions (25 mM) of the test compounds were prepared by dissolving 3-5 mg aliquots in the appropriate amount of DMSO.
Aliquots (0.01 mL) were added to 0.490 mL of pH 7.3 PBS in glass vials. For each time point, 3 PBS vials were prepared in amber glass vials. For the six hour time point triplicate aliquots in DMSO were also prepared.
The resulting 0.5 mM solutions were shaken for up to six hours, with vials removed for analysis at 1, 3 and 6 hours. Samples were analysed by HPLC (0.025 mL injections).
Solubility in 2% DMSO in PBS at each time point was determined by comparing total peak areas for each chromatogram with mean total peak area for chromatograms produced from the corresponding 6 hour DMSO solutions. (Mean total peak area in DMSO solutions was assumed to be equivalent to a 0.5 mM solution).

Yeast Hsp90 = Yeast Hsp90 (Saccharomyces cerevisiae, UniProt P02829); test: Hsp90 binding, isothermal titration calorimetry
Experimental: Yeast Hsp90 was dialysed against 20 mM Tris pH 7.5 containing 1 mM EDTA and 5 mM NaCl and then diluted to 0.008 mM in the same buffer, but containing 2% DMSO. The test compounds were dissolved in 100% DMSO at a concentration of 50 mM and subsequently diluted to 0.1 mM in the same buffer as for Hsp90 with 2% DMSO. Heats of interaction were measured at 30° C. on a MSC system (Microcal), with a cell volume of 1.458 mL. 10 aliquots of 0.027 mL of 0.100 mM of each test compound were injected into 0.008 mM yeast Hsp90. Heats of dilution were determined in a separate experiment by injecting the test compound into buffer containing 2% DMSO, and the corrected data fitted using a nonlinear least square curve-fitting algorithm (Microcal Origin) with three floating variables: stoichiometry, binding constant and change in enthalpy of interaction.

LNCAP = test: monolayer proliferation assay (modified propidium iodide assay), LNCAP; type: cell-based, human; details: 4 days exposure, median of duplicate experiments
Experimental: as §1, §2, §3, §4, §5, §6, §7

[4] = concentration of 14: 0 nM (standard agent alone)
[5] = yeast Hsp90, ITC at 30° C., 2% DMSO, read-out: Kd values for Hsp90 binding

Chain of Yeast Hsp90 (P02829 whole entry): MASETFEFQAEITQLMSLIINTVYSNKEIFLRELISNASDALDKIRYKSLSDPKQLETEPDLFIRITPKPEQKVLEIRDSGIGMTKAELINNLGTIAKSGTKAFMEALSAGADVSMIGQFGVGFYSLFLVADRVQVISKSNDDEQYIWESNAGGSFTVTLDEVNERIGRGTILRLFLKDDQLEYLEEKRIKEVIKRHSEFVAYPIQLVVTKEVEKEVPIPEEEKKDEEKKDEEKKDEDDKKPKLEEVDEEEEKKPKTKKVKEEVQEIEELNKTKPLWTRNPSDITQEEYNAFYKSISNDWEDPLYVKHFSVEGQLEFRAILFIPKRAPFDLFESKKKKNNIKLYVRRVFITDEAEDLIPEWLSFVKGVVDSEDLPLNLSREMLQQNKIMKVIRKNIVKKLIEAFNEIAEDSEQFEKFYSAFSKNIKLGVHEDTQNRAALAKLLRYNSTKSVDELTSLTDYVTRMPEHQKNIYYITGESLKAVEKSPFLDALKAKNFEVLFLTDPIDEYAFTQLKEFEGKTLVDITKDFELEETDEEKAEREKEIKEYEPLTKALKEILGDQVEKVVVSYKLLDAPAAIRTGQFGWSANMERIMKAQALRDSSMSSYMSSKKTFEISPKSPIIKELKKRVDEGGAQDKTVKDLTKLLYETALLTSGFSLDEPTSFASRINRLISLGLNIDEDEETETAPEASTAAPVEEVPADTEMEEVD
Chain of terminal deoxynucleotidyl transferase (P04053 whole entry, species assumed): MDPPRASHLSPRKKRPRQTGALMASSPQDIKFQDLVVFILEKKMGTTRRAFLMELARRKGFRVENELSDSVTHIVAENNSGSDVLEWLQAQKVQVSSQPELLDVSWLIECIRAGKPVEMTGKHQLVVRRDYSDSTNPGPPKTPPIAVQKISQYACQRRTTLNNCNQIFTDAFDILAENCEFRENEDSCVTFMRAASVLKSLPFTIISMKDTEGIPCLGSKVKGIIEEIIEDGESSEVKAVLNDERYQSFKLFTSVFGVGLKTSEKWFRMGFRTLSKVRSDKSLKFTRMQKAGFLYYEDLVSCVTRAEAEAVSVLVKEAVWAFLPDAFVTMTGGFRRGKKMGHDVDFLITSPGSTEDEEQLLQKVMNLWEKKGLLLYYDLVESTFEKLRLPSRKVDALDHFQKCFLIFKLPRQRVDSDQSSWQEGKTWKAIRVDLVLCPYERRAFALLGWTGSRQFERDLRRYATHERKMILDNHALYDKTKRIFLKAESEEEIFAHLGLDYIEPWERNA

Row | SMILES | IC70 of standard agent (DU145 [1]; combined with 14 at 80 nM) | Test/Control (%) at drug concentration (SF268; 1 μg/mL) | Test/Control (%) at drug concentration (SF268; 10 μg/mL) | Test/Control (%) at drug concentration (H460; 1 μg/mL) | Test/Control (%) at drug concentration (H460; 10 μg/mL) | Test/Control (%) at drug concentration (OVCAR3; 1 μg/mL) | Test/Control (%) at drug concentration (OVCAR3; 10 μg/mL) | Test/Control (%) at drug concentration (394NL; 1 μg/mL) | Test/Control (%) at drug concentration (394NL; 10 μg/mL) | Test/Control (%) at drug concentration (1138L; 1 μg/mL) | Test/Control (%) at drug concentration (1138L; 10 μg/mL) | Test/Control (%) at drug concentration (DU145 [3]; 1 μg/mL) | Test/Control (%) at drug concentration (DU145 [3]; 10 μg/mL) | Test/Control (%) at drug concentration (MCF7; 1 μg/mL) | Test/Control (%) at drug concentration (MCF7; 10 μg/mL) | Test/Control (%) at drug concentration (251L; 1 μg/mL) | Test/Control (%) at drug concentration (251L; 10 μg/mL) | solubility (Solubility assay) | Test/Control (%) at drug concentration (LNCAP; 1 μg/mL) | Test/Control (%) at drug concentration (LNCAP; 10 μg/mL) | other results
1 | CO[C@@]12[C@H](COC(N)=O)C3=C(C(=O)C(C)=C(N)C3=O)N1C[C@@H]1N[C@@H]12 [mitomycin, mitomycin C] | 0.056 mg/L | – | – | – | – | – | – | – | – | – | – | – | – | – | – | – | – | – | – | – | IC70 of standard agent (DU145 [1]; combined with 14 at 30 nM): 0.112 mg/L; IC70 of standard agent (DU145 [1]; combined with 14 at 50 nM): 0.087 mg/L; IC70 of standard agent (DU145 [1]; [4]): 0.165 mg/L
2 | CO[C@H]1[C@@H](OC)C[C@H](C)[C@@H](OC)C2=CC(=O)C=C(NC(=O)/C(C)=C/C=C\[C@H](C)[C@@H](OC(N)=O)/C(C)=C/[C@@H]1C)C2=O [macbecin] | – | 40% | 6% | 62% | 25% | 54% | 11% | 16% | 13% | 71% | 31% | 13% | 5% | 42% | 19% | 58% | 44% | 81 µM (≈ 45.3 µg/mL) | 34% | 32% | Reverse transcriptase activity inhibition (Reverse transcriptase): not inhibited; terminal deoxynucleotidyl transferase activity inhibition [2]: not inhibited; Kd (Yeast Hsp90): 240 nM
3 | CO[C@H]1C[C@H](C)[C@@H](O)c2cc(O)cc(c2)NC(=O)/C(C)=C/CC[C@H](C)[C@@H](OC(N)=O)/C(C)=C/[C@H](C)[C@H]1O [Compound 15, 7-O-carbamoyl-15-hydroxypre-macbecin] | – | 95% | 27% | 87% | 23% | 100% | 41% | 75% | 18% | 101% | 25% | 99% | 18% | 99% | 19% | 86% | 29% | ≥ 500 µM | 58% | 16% | Kd (Yeast Hsp90; [5]): 6 nM
4 | O=NN(CCCl)C(=O)NC1CCCCC1 [CCNU, Cyclohexylchloroethylnitrosurea] | 11.30 mg/L | – | – | – | – | – | – | – | – | – | – | – | – | – | – | – | – | – | – | – | IC70 of standard agent (DU145 [1]; combined with 14 at 120 nM): 9.34 mg/L; IC70 of standard agent (DU145 [1]; combined with 14 at 160 nM): 1.63 mg/L; IC70 of standard agent (DU145 [1]; [4]): 19.74 mg/L
5 | CO[C@H]1C[C@H](C)Cc2cc(O)cc(c2)NC(=O)/C(C)=C/CC[C@H](C)[C@@H](OC(N)=O)/C(C)=C/[C@H](C)[C@H]1O [Compound 14, 7-O-carbamoylpre-macbecin] | – | 18% | 16% | 3% | 4% | 27% | 28% | 14% | 13% | 13% | 14% | 8% | 6% | 11% | 9% | 18% | 16% | ≥ 500 µM | 13% | 12% | Kd (Yeast Hsp90; [5]): 3.2 nM
6 | CO[C@H]1[C@@H](OC)C[C@H](C)[C@@H](OC)c2cc(O)cc(c2O)NC(=O)/C(C)=C/C=C\[C@H](C)[C@@H](OC(N)=O)/C(C)=C/[C@@H]1C [18,21-dihydromacbecin] | – | – | – | – | – | – | – | – | – | – | – | – | – | – | – | – | – | 136 µM (≈ 76.3 µg/mL) | – | – | –
